Data published in US5075440A, “Novel pyrido[2,3-f](1,4)thiazepines and pyrido[3,2-b](1,5)benzothiazepines” (Ortho Pharmaceutical Corporation, priority 1990, dated 1991).
“And” between values parts separate entries of the source, which are not always exact repeats. Equal entries are not always repeated.

What was measured:
trachealis muscle tissue = test: Inhibition of calcium dependent smooth muscle contraction, trachea (P#176 Trach); parameters: species or system dog; details: 50 mM KCl contraction; for inhibition at 0.03 µM / inhibition at 0.3 µM / inhibition at 2 µM / inhibition at 0.1 µM / inhibition at 0.01 µM / inhibition at 1 µM: Canis lupus familiaris, read-out: P#176 Trach % INHB/μM
Protocol: (§1) The test for inhibition of calcium dependent smooth muscle contraction is determined according to the following procedure:
(§2) The trachea and the aorta from dogs sacrificed by excess KCl injection are stored overnight at 4° C. in oxygenated Krebs-Henseleit buffer. Tracheal rings, one cartilage segment wide (5-10 mm), are cut starting from the bronchial end. Rings of aorta tissue of the same width are also prepared. After cutting the cartilage, the trachealis muscle tissue and the aorta tissue are suspended in oxygenated Krebs-Henseleit buffer at 37° C. in a 25 ml tissue bath. After a 60-minute equilibration period, the tissues are challenged with 10 μM carbachol. After 5 minutes, the tissues are rinsed and allowed to rest 50 minutes. The tissues are then challenged with 50 mM KCl and, after 30 minutes, the contractions are quantitated. The tissues are then rinsed and reequilibrated for 50 minutes. Test compounds are then added for 10 minutes, and the tissue is rechallenged with 50 mM KCl. After 30 minutes, the contraction is recorded and used to determine the % inhibition of control.
(§3) The percent inhibition of smooth muscle contraction is calculated from response data before and after drug treatment. [formula]

aorta tissue = test: Inhibition of calcium dependent smooth muscle contraction, aorta (P#176 Aorta); parameters: species or system dog; details: 50 mM KCl contraction
Protocol: as §1, §2, §3

[1] = biological target: T1, Calcium Channel (3H-nitrendipine binding, heart membranes) (Oryctolagus cuniculus, UniProt P15381); test: Inhibition of 3H-nitrendipine binding (P#166 Nit. Binding); parameters: species or system rabbit; details: for IC50: rabbit heart membranes, 3H-nitrendipine 0.05-0.50 nM
T1 construct: the heart is immediately removed, cleaned and chopped into small pieces; The tissue is homogenized; from tissue; host or cells: heart membranes of female New Zealand white rabbits (42,000×g pellet)
T1 sequence (P15381 whole entry, other chains not shown): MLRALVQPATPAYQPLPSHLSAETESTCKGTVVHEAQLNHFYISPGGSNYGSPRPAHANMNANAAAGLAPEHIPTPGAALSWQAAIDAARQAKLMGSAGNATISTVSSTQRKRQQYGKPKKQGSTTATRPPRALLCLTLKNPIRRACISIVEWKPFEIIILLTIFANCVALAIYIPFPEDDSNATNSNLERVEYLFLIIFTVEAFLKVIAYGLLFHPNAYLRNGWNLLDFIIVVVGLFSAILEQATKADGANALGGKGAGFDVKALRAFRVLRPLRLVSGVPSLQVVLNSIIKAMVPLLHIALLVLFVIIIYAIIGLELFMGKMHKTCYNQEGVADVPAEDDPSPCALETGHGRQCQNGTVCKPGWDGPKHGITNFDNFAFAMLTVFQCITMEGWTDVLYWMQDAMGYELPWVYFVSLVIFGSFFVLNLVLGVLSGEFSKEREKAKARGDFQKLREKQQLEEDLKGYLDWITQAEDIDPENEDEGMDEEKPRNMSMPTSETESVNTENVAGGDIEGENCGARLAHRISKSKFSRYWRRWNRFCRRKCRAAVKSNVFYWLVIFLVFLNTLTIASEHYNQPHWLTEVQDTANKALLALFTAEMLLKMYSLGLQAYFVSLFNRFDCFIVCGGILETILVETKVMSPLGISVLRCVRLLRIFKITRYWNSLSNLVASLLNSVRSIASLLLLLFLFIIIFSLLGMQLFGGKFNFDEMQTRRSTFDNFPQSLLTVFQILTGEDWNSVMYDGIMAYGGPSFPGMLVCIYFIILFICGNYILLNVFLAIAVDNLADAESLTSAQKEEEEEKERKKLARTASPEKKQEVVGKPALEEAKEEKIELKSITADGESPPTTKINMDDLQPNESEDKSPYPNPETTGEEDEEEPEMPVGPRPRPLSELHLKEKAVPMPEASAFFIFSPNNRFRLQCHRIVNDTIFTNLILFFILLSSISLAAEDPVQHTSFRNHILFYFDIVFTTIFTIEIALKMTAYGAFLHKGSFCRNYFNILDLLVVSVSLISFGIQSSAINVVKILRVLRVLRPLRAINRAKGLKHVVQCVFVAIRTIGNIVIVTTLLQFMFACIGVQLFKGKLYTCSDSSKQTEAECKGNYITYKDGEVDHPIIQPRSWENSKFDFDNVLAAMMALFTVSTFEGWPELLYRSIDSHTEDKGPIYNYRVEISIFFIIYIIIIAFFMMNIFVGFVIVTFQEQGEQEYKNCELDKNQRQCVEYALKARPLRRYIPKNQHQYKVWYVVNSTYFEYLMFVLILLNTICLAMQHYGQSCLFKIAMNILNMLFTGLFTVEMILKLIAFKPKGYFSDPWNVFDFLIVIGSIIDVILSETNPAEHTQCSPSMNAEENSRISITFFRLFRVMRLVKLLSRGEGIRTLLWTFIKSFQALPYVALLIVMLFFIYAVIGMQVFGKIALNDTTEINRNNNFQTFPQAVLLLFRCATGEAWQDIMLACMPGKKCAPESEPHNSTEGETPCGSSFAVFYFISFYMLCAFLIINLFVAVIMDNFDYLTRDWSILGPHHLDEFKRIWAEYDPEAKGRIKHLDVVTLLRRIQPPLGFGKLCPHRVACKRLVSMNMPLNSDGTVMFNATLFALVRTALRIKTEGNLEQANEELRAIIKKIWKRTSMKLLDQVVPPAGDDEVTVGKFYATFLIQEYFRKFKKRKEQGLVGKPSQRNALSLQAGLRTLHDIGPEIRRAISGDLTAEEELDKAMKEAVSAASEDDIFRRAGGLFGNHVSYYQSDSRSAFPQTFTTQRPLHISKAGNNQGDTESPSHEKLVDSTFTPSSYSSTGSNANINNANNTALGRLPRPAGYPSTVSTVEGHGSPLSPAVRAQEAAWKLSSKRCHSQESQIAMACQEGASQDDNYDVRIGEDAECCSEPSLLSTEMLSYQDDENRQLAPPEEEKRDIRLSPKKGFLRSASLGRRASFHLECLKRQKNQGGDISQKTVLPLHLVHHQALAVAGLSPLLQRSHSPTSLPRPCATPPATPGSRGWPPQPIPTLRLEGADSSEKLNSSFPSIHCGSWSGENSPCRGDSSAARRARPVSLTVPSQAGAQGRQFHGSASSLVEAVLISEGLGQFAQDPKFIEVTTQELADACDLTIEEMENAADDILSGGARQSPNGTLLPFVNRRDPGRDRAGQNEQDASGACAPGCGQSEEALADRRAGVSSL
T1 sequence (P13806 27-960 partner limits assumed, other chains not shown): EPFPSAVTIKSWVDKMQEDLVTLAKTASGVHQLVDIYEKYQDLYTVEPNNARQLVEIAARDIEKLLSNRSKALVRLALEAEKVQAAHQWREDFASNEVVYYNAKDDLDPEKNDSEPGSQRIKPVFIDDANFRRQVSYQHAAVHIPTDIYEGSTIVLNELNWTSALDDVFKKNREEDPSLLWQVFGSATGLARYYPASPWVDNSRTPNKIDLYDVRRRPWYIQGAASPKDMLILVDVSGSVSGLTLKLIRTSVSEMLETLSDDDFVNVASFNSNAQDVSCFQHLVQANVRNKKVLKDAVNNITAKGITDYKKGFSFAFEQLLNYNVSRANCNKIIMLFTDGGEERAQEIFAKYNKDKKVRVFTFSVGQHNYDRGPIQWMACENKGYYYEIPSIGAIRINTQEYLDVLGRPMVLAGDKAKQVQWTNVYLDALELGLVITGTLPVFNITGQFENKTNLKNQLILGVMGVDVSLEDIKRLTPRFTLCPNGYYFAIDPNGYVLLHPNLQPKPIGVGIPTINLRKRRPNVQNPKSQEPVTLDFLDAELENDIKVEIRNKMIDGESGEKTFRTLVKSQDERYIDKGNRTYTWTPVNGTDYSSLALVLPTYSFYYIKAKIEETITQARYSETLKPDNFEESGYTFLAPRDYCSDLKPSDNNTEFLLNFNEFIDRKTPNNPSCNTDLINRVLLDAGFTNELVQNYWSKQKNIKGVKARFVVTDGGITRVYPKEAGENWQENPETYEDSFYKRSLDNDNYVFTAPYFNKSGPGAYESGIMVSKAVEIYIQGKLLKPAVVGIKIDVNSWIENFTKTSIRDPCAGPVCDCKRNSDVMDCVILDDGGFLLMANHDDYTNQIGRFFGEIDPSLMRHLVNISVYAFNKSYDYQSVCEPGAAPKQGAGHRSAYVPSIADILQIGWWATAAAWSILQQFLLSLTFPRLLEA
T1 sequence (P13806 961-1106 partner limits assumed, other chains not shown): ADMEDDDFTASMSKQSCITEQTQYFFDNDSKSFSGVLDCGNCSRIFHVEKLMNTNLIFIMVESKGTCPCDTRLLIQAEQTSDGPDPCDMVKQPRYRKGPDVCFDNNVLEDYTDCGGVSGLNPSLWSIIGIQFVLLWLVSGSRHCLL
Protocol: The assay for inhibition of nitrendipine binding is performed using the following procedure:
Female, New Zealand white rabbits (1-2 kg) are sacrificed by cervical dislocation, and the heart is immediately removed, cleaned and chopped into small pieces. The tissue is homogenized in 5×volume of 0.05M Hepes buffer, pH 7.4. The homogenate is centrifuged at 4000×g for 10 minutes, and the supernatant is recentrifuged at 42,000×g for 90 minutes. The resulting membrane pellet is resuspended (0.7 ml/g weight) in 0.05M Hepes, pH 7.4 and stored at […] until used. Each tube of the binding assay contains ^3 H-nitrendipine (0.05-0.50 nM), buffer, membranes (0.10 ml), and test compound in a total volume of 1.0 ml. After 90 minutes at 4° C., the bound nitrendipine is separated from the unbound by filtration on Whatman GF/C filters. After rinsing, the filters are dried and counted in a liquid scintillation counter.
Non-specific binding of ^3 H-nitrendipine (that amount bound in the presence of excess unlabelled nitrendipine) is subtracted from the total bound to obtain specifically bound radiolabeled nitrendipine. The amount of specifically bound nitrendipine in the presence of a test compound is compared to that amount bound in the absence of a compound. A percent displacement (or inhibition) can then be obtained.

[2] = Canis lupus familiaris, 0.1 μM, read-out: P#176 Aorta % INHB/μM
[3] = Canis lupus familiaris, 1.0 μM, read-out: P#176 Aorta % INHB/μM
[4] = Canis lupus familiaris, read-out: P#176 Aorta % INHB/μM
[5] = Canis lupus familiaris, 0.01 μM, read-out: P#176 Aorta % INHB/μM

Row | IC50 [1] | Structure (SMILES) | inhibition at 0.3 µM (trachealis muscle tissue) | inhibition at 0.1 µM (aorta tissue; [2]) | inhibition at 1 µM (aorta tissue; [3]) | inhibition at 2 µM (trachealis muscle tissue; 2.0 μM) | inhibition at 0.1 µM (trachealis muscle tissue; 0.1 μM) | inhibition at 0.01 µM (aorta tissue; [5]) | further results
1 | – | CCOC(=O)C1=C(C)NC2=C(C1c1cccc(Cl)c1Cl)S(=O)(=O)CCNC2 (single isomer, unassigned) [2,3-dichloro / H / ethyl, Ethyl 9-(2,3-dichlorophenyl)-1,1-dioxo-2,3,4,5,6,9-hexahydro-7-methylpyrido[2,3-f][1,4]-thiazepine-8-carboxylate] | 24% | – | – | – | – | – | inhibition at 0.03 µM (trachealis muscle tissue): 25%
2 | – | CCOC(=O)C1=C(C)NC2=C(C1c1cccc(Cl)c1Cl)S(=O)(=O)CCNC2 (single isomer, unassigned) [2,3-dichloro / H / ethyl] [Ethyl 9-(2,3-dichlorophenyl)-1,1-dioxo-2,3,4,5,6,9-hexahydro-7-methylpyrido[2,3-f][1,4]-thiazepine-8-carboxylate] | – | – | – | – | – | – | P#176 Aorta % INHB/μM (aorta tissue; 0.01 μM): 0% and 14%; P#176 Aorta % INHB/μM (aorta tissue; 0.1 μM): 0% and 67%; P#176 Aorta % INHB/μM (aorta tissue; 1.0 μM): 69% and 97%; P#176 Trach % INHB/μM (trachealis muscle tissue; 0.1 μM): 2% and 47%; P#176 Trach % INHB/μM (trachealis muscle tissue; 2.0 μM): 54% and 96%
3 | 660 nM | CCOC(=O)C1=C(C)NC2=C(C1c1cccc3nonc13)S(=O)(=O)CCNC2 (stereo not shown) [2,3-(2,1,3 oxadiazolyl) / H / ethyl] | 22% | 22% | 83% | 68% | – | – | –
4 | – | CCOC(=O)C1=C(C)NC2=C(C1c1cccc(Cl)c1Cl)S(=O)(=O)CCN(C(=O)OC(C)(C)C)C2 (stereo not shown) [2,3-dichloro / BOC / ethyl, Ethyl 9-(2,3-Dichlorophenyl)-4-(t-butyloxycarbonyl) -1,1-dioxo-2,3,4,5,6,9-hexahydro-7-methylpyrido[2,3-f][1,4]thiazepine-8-carboxylate] | – | – | 18% | 0% | – | – | inhibition at 1 µM ([1]; @ 1.0 μM test compound): 32%; inhibition at 0.3 µM (aorta tissue; [4]): 4%
5 | 210 nM | CCOC(=O)C1=C(C)NC2=C(C1c1cccc(Cl)c1Cl)S(=O)(=O)CCN(Cc1ccccc1)C2 (stereo not shown) [2,3-dichloro / Bz / ethyl, Ethyl 4-N-Benzyl-9-(2,3-dichlorophenyl) -1,1-dioxo-2,3,4,5,6,9-hexahydro-7-methylpyrido [2,3-f][1,4]thiazepine-8-carboxylate] | – | – | 79% | 32% | 10% | – | –
6 | – | CCOC(=O)C1=C(C)NC2=C(C1c1cccc(Cl)c1Cl)S(=O)(=O)c1ccccc1N(C=O)C2 (stereo not shown) [2,3-dichloro / CHO / ethyl, Ethyl 4-(2,3-dichlorophenyl)-5,5-dioxo-10-formyl-2-methyl-1,4,10,11-tetrahydropyrido[3,2-b][1,5]-benzothiazepine-3-carboxylate] | 35% | 50% | 74% | 73% | – | 33% | inhibition at 0.01 µM (trachealis muscle tissue): 38%
7 | 60 nM | CCOC(=O)C1=C(C)NC2=C(C1c1cccc(Cl)c1Cl)S(=O)(=O)CCN(CC)C2 (stereo not shown) [2,3-dichloro / Et / ethyl, Ethyl 9-(2,3-dichlorophenyl)-1,1-dioxo-4-ethyl-2,3,4,5,6,9-hexahydro-7-methyl-pyrido[2,3-f][1,4]-thiazepine-8-carboxylate] | 70% | 76% | 96% | – | – | 19% | inhibition at 0.01 µM (trachealis muscle tissue): 33%; inhibition at 1 µM (trachealis muscle tissue): 90%
8 | – | CC(=O)OCCOC(=O)C1=C(C)NC2=C(C1c1cccc(Cl)c1Cl)S(=O)(=O)CCNC2 (stereo not shown) [2,3-dichloro / H / 2-acetoxyethyl, 2-Acetoxyethyl 9-(2,3-Dichlorophenyl) -1,1-dioxo-2,3,4,5,6,9-hexahydro-7-methylpyrido [2,3-f][1,4]thiazepine-8-carboxylate] | – | 18% | 72% | – | – | – | inhibition at 0.3 µM (aorta tissue; [4]): 62%
9 | – | CC1=C(C(=O)OCCO)C(c2cccc(Cl)c2Cl)C2=C(CNCCS2(=O)=O)N1 (stereo not shown) [2,3-dichloro / H / 2-hydroxyethyl] | – | – | 0% | – | – | – | inhibition at 10 µM (aorta tissue; [4]): 56%
10 | 380 nM | CC1=C(C(=O)OCCN(C)Cc2ccccc2)C(c2cccc(Cl)c2Cl)C2=C(CNCCS2(=O)=O)N1 (stereo not shown) [2,3-dichloro / H / NBzNMe-ethyl, 2-(N-benzyl-N-methylamino)ethyl 9-(2,3-dichlorophenyl)-1,1-dioxo-2,3,4,5,6,9-hexahydro-7-methylpyrido[2,3-f][1,4]thiazepine-8-carboxylate] | 62% | 48% | 93% | 86% | 23% | – | inhibition at 0.03 µM (aorta tissue; Canis lupus familiaris, 0.03 μM, read-out: P#176 Aorta % INHB/μM): 20%
11 | 99 nM and 105 nM | CCOC(=O)C1=C(C)NC2=C(C1c1cccc(Cl)c1Cl)S(=O)(=O)CCNC2 (stereo not shown) [2,3-dichloro / H / ethyl, Ethyl 9-(2,3-dichlorophenyl)-1,1-dioxo-2,3,4,5,6,9-hexahydro-7-methyl-pyrido[2,3-f][1,4]thiazepine-8-carboxylate] | – | 85% | 96% | – | 43% | 21% | inhibition at 1 µM (trachealis muscle tissue): 73%
12 | – | CC(=O)OCCOC(=O)C1=C(C)NC2=C(C1c1cccc(Cl)c1Cl)S(=O)(=O)CCN(C)C2 (stereo not shown) [2,3-dichloro / Me / 2-acetoxyethyl, 2-Acetoxyethyl 9-(2,3-dichlorophenyl)-4,7-dimethyl-1,1-dioxo-2,3,4,5,6,9-hexahydropyrido[2,3-f][1,4]-thiazepine-8-carboxylate] | – | 26% | 89% | – | – | 0% | –
13 | – | CC1=C(C(=O)OCCO)C(c2cccc(Cl)c2Cl)C2=C(CN(C)CCS2(=O)=O)N1 (stereo not shown) [2,3-dichloro / Me / 2-hydroxyethyl] | – | 14% | 62% | – | – | – | inhibition at 3 µM (aorta tissue; Canis lupus familiaris, 3.0 μM, read-out: P#176 Aorta % INHB/μM): 77%; inhibition at 10 µM (aorta tissue; [4]): 95%
14 | 150 nM | CC1=C(C(=O)OCCN(C)Cc2ccccc2)C(c2cccc(Cl)c2Cl)C2=C(CN(C)CCS2(=O)=O)N1 (stereo not shown) [2,3-dichloro / Me / NBzNMe-ethyl] | 71% | – | – | 88% | 54% | – | inhibition at 0.03 µM (trachealis muscle tissue): 28%
15 | – | CCOC(=O)C1=C(C)NC2=C(C1c1cccc(Cl)c1Cl)S(=O)(=O)CCN(C(=O)CN)C2 (stereo not shown) [2,3-dichloro / NH2 CH2 CO / ethyl] | 6% | – | 20% | 36% | – | – | –
16 | – | CCCCCCCN1CCS(=O)(=O)C2=C(C1)NC(C)=C(C(=O)OCC)C2c1cccc(Cl)c1Cl (stereo not shown) [2,3-dichloro / hept / ethyl] | – | 4% | – | 27% | – | – | –
17 | – | CCOC(=O)C1=C(C)NC2=C(C1c1ccccc1[N+](=O)[O-])S(=O)(=O)CCNC2 (stereo not shown) [2-nitro / H / ethyl] | 45% | 47% | 77% | 75% | 12% | 27% | –
18 | – | CCOC(=O)C1=C(C)NC2=C(C1c1cccc([N+](=O)[O-])c1)S(=O)(=O)CCN(CC)C2 (stereo not shown) [3-nitro / Et / ethyl, Ethyl 1,1-dioxo-4-ethyl-2,3,4,5,6,9-hexahydro-7-methyl-9-(3-nitrophenyl)-pyrido[2,3-f][1,4]-thiazepine-8-carboxylate] | 92% | 73% | – | – | 73% | 5% | inhibition at 0.03 µM (trachealis muscle tissue): 50%
